The target in experiment [1] is T1, Alpha-1A adrenergic receptor (Homo sapiens, UniProt P35348).
T1 sequence (P35348 whole entry): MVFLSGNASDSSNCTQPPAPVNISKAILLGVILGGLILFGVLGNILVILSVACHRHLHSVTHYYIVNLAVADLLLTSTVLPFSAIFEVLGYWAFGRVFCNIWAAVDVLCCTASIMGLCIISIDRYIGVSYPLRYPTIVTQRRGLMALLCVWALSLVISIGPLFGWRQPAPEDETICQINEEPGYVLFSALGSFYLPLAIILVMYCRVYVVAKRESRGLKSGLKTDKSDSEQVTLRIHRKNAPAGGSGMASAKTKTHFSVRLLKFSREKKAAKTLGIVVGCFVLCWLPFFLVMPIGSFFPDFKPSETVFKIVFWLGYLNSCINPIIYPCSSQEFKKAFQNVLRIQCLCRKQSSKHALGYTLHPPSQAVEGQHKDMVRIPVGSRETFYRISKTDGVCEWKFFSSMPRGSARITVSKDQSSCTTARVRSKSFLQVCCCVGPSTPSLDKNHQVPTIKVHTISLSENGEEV

A further experiment deals with D(1A) dopamine receptor (Homo sapiens, UniProt P21728). It counts as functional, cell-based.
Experiment [2] addresses T2, Estrogen receptor (Homo sapiens, UniProt P03372).
T2 sequence (P03372 whole entry): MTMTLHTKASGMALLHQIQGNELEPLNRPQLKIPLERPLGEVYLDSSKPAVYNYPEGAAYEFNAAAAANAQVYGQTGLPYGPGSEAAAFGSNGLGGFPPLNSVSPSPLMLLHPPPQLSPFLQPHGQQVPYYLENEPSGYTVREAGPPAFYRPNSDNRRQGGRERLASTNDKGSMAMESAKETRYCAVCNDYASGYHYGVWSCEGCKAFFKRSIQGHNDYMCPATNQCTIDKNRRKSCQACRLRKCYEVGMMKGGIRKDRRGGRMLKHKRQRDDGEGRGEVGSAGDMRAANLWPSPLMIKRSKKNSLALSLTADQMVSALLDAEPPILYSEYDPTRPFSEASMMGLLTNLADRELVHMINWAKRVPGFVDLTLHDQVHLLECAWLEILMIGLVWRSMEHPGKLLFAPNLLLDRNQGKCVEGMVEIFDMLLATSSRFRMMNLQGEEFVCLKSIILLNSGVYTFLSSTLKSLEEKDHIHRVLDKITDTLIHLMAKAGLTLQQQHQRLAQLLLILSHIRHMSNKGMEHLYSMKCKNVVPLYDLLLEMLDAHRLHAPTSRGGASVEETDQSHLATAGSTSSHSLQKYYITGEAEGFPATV

Experiment [3] deals with Gamma-aminobutyric acid receptor subunit alpha-1 (Rattus norvegicus, UniProt P62813).
The next experiment has as its target Histamine H1 receptor (Homo sapiens, UniProt P35367).
In experiment [4] the target is 5-hydroxytryptamine receptor 2B (Homo sapiens, UniProt P41595). It counts as functional, cell-based.
Experiment [5] addresses Kappa-type opioid receptor (Homo sapiens, UniProt P41145).
For another experiment, the target named is T3, Progesterone receptor (Homo sapiens, UniProt P06401).
T3 sequence (P06401 whole entry): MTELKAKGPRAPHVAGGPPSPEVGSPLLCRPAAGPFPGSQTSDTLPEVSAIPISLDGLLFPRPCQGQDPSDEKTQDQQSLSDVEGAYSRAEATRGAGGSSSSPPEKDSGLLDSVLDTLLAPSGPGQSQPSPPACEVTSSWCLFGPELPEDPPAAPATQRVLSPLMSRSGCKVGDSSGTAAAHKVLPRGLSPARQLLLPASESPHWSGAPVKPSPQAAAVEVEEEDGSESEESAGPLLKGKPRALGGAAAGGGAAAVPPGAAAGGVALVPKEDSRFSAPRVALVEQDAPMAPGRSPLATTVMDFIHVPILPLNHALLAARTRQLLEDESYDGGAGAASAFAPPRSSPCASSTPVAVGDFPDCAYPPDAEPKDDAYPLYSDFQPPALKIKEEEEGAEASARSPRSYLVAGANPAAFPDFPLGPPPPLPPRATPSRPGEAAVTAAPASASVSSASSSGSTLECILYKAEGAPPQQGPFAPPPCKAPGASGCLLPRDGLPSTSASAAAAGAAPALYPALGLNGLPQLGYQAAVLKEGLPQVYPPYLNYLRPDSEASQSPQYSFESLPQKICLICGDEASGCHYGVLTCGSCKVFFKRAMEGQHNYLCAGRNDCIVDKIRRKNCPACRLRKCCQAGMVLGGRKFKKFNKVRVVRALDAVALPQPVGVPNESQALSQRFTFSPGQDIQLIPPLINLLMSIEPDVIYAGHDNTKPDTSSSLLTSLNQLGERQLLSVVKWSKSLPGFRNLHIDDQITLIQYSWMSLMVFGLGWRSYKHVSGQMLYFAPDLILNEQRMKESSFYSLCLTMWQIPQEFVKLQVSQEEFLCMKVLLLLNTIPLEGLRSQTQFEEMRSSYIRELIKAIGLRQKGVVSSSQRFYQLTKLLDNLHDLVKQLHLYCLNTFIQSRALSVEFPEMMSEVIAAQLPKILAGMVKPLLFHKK
It counts as functional.

In experiment [6] the target is T2, Estrogen receptor. This is another data set of the same source.
In experiment [7] the target is T4, Mu-type opioid receptor (Homo sapiens, UniProt P35372).
Experiment [8] deals with cGMP-inhibited 3',5'-cyclic phosphodiesterase 3A (Homo sapiens, UniProt Q14432). It counts as functional.
A further experiment has as its target T5, Thromboxane A2 receptor (Homo sapiens, UniProt P21731).
T5 sequence (P21731 whole entry): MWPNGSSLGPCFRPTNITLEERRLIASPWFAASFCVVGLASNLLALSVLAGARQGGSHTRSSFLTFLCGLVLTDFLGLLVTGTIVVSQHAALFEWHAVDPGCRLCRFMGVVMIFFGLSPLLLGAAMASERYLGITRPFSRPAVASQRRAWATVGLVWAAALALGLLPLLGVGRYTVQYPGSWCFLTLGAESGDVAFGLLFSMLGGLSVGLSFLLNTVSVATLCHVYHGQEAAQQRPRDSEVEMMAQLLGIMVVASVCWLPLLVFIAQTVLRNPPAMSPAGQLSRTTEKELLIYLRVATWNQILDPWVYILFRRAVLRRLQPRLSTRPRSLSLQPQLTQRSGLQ
The experiment is classed as functional, cell-based.

In experiment [9] the target is T4, Mu-type opioid receptor. This is another data set of the same source.

Structures are written as SMILES.

For orientation: AC50 means the concentration giving half of the maximal activity seen. Read a high AC50 as weaker potency.
Further: assay procedure not described here.

Gamma-aminobutyric acid receptor subunit alpha-1, sequence (P62813 whole entry): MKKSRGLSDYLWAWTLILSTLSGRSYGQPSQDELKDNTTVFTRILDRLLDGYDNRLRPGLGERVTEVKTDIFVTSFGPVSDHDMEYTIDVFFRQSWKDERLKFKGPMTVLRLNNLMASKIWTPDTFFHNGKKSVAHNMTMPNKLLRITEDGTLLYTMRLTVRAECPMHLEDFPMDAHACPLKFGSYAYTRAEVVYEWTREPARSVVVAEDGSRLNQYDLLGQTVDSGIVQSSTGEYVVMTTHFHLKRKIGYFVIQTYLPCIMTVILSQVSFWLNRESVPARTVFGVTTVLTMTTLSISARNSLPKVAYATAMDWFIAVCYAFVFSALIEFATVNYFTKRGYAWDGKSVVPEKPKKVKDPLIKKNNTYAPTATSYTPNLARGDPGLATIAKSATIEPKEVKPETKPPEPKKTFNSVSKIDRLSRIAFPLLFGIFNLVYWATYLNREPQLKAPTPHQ
cGMP-inhibited 3',5'-cyclic phosphodiesterase 3A, sequence (Q14432 whole entry): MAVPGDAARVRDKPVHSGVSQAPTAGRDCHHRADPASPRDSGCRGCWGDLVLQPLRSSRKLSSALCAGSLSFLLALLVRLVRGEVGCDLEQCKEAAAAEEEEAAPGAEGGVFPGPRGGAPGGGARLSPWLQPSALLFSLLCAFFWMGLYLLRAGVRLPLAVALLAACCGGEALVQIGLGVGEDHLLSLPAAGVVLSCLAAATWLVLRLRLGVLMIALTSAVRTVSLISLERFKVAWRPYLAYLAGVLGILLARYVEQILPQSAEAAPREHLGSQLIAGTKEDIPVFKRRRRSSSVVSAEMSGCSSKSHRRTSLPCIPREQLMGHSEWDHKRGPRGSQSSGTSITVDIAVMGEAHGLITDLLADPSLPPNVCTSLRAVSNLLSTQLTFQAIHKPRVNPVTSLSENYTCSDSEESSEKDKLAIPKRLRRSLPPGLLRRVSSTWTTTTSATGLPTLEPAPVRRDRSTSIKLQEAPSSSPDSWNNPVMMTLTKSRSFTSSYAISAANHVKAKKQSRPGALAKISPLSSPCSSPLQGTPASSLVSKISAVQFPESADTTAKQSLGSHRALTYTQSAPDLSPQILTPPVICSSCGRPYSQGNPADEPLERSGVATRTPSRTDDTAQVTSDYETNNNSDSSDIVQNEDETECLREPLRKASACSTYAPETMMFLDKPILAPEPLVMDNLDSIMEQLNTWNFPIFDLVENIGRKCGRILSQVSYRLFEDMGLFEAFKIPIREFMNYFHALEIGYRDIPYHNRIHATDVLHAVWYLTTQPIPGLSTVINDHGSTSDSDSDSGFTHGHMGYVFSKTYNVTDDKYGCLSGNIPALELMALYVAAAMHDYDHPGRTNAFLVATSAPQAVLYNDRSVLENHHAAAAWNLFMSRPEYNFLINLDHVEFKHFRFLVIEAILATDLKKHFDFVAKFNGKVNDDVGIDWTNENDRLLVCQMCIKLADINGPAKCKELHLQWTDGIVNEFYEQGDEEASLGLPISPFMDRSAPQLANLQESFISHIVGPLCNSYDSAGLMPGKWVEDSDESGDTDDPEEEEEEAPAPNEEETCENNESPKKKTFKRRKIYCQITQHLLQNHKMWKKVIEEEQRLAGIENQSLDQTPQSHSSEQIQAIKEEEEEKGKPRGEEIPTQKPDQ
T4 sequence (P35372 whole entry): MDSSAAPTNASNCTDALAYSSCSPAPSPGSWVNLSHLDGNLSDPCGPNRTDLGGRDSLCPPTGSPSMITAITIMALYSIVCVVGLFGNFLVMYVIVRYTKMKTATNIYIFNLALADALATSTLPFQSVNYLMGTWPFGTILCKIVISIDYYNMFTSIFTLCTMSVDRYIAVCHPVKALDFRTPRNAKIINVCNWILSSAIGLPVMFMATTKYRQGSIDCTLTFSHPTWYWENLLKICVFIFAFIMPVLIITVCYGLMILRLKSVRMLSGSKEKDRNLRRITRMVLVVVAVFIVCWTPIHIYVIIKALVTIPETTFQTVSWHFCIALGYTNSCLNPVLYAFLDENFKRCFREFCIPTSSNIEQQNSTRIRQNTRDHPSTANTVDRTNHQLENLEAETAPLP
Kappa-type opioid receptor, sequence (P41145 whole entry): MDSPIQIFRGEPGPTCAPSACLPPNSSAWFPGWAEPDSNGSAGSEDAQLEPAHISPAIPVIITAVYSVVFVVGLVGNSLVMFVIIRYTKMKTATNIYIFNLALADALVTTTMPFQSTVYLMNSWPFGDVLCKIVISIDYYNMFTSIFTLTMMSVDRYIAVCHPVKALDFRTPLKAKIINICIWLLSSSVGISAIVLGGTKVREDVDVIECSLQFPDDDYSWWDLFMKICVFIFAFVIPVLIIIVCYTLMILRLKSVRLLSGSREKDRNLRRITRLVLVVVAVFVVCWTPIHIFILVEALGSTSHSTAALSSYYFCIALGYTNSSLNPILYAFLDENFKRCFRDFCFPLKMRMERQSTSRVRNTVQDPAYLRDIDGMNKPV
5-hydroxytryptamine receptor 2B, sequence (P41595 whole entry): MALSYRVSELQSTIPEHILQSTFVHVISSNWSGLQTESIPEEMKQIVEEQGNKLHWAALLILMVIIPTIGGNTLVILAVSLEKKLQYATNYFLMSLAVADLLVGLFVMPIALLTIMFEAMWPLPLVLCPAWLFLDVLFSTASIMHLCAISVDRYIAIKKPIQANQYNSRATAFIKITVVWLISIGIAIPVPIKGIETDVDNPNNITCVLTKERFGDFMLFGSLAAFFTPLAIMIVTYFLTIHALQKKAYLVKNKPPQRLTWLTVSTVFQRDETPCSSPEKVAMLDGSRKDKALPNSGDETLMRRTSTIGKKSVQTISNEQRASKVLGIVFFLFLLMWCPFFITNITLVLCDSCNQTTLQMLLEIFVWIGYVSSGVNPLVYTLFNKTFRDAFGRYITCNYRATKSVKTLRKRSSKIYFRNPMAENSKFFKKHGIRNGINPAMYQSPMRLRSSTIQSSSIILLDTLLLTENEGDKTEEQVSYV
Histamine H1 receptor, sequence (P35367 whole entry): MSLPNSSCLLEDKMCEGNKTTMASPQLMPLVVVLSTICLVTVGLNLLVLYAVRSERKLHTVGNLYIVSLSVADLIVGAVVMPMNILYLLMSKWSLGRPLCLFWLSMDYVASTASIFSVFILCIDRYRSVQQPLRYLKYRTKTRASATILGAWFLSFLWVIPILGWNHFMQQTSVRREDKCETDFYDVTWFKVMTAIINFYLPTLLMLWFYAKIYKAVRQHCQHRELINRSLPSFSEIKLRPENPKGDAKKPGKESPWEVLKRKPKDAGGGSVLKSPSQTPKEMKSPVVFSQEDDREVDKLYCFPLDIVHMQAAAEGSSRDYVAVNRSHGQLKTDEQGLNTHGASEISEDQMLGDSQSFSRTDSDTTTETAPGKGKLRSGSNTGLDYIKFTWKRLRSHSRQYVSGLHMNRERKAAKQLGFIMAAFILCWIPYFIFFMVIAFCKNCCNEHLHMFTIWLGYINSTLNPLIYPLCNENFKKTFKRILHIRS
D(1A) dopamine receptor, sequence (P21728 whole entry): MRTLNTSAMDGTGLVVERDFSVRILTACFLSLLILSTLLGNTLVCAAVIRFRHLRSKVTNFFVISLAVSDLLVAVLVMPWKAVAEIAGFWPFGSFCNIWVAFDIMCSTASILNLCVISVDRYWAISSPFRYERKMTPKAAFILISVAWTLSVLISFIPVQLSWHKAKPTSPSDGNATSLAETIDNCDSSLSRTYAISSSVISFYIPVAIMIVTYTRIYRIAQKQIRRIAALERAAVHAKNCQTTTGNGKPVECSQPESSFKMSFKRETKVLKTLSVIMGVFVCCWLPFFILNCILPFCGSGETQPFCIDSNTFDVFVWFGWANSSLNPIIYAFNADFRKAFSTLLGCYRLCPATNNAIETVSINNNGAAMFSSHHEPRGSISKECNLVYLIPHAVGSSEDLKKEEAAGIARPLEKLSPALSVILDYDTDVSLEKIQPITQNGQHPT

Regarding `C=CCNc1nc(NCC=C)nc(N2CCN(C(c3ccc(F)cc3)c3ccc(F)cc3)CC2)n1` [ALMITRINE], the AC50 (in experiment [1]; on D(1A) dopamine receptor; at Estrogen receptor [2]; in experiment [3]; on Histamine H1 receptor; in experiment [4]) was more than 30 µM each time. Besides, the AC50 in [5] was 18 µM; on Progesterone receptor, more than 30 µM.
As to `CN(C)CCOC(c1ccccc1)c1ccc(Br)cc1` (configuration not stated) [BROMODIPHENHYDRAMINE], the AC50 at Estrogen receptor [6] was more than 30 µM; at Mu-type opioid receptor [7], 17.9 µM; in [8], more than 30 µM; at Thromboxane A2 receptor it was 14.8 µM.
In the case of `CC(=O)O[C@]1(C(C)=O)CC[C@H]2[C@@H]3C=C(Cl)C4=CC(=O)CC[C@]4(C)[C@H]3CC[C@@]21C` [CHLORMADINONE ACETATE], the AC50 is more than 30 µM at Estrogen receptor [6], more than 30 µM at Mu-type opioid receptor [7], more than 30 µM in [8] and 28.5 µM on Thromboxane A2 receptor.
Consider `NC(=O)OCC(O)COc1ccc(Cl)cc1` (configuration not stated) [CHLORPHENESIN CARBAMATE], for which the AC50 (on Estrogen receptor [6]; on Mu-type opioid receptor [7]; in experiment [8]; on Thromboxane A2 receptor) was more than 30 µM in each case.
As to `O=C(O)c1cn(C2CC2)c2cc(N3CCNCC3)c(F)cc2c1=O` [CIPROFLOXACIN], the AC50 (at Estrogen receptor [2]; on Estrogen receptor [6]; in [8]; on Thromboxane A2 receptor) was more than 30 µM throughout.
On to `Nc1ncn([C@H]2C[C@H](O)[C@@H](CO)O2)c(=O)n1` [DECITABINE], for which the AC50 (in experiment [1]; on D(1A) dopamine receptor; in experiment [3]; on Histamine H1 receptor; in [4]; in experiment [5]) was more than 30 µM throughout. This molecule had an AC50 at Progesterone receptor of more than 30 µM.
On to `CCN(CC)C(=S)S` [DITIOCARB], for which the AC50 on Estrogen receptor [6] was more than 30 µM; on Mu-type opioid receptor [7] it was more than 30 µM; in experiment [8], more than 30 µM; on Thromboxane A2 receptor it was more than 1 µM.
For the molecule `CC(N)Cc1ccc(O)cc1` (configuration not stated) [HYDROXYAMPHETAMINE], the AC50 (at Estrogen receptor [6]; on Mu-type opioid receptor [7]; in experiment [8]; at Thromboxane A2 receptor) was more than 30 µM each time.
`COc1cc2c(cc1OC)CC(=O)N(CCCN(C)C[C@H]1Cc3cc(OC)c(OC)cc31)CC2` [IVABRADINE]: the AC50 (at Estrogen receptor [6]; at Mu-type opioid receptor [7]; in experiment [8]; on Thromboxane A2 receptor) was more than 30 µM each time.
For `CC(C)(C)NC[C@H](O)COc1cccc2c1CCCC2=O` [LEVOBUNOLOL], the AC50 (at Estrogen receptor [6]; on Mu-type opioid receptor [7]; in [8]; at Thromboxane A2 receptor) was more than 30 µM throughout.
For `CN1C(=O)/C(=N\NC(N)=S)c2ccccc21` [METHISAZONE], the AC50 on Estrogen receptor [6] was more than 30 µM; on Mu-type opioid receptor [7], more than 30 µM; in experiment [8] it was more than 3 µM; at Thromboxane A2 receptor, more than 10 µM.
Regarding `COC(=O)c1ccc(O)cc1` [METHYLPARABEN], the AC50 (on Estrogen receptor [6]; at Mu-type opioid receptor [7]; in experiment [8]; at Thromboxane A2 receptor) was more than 30 µM in each case.
With `CCCc1nc(C(C)(C)O)c(C(=O)O)n1Cc1ccc(-c2ccccc2-c2nnn[nH]2)cc1` [OLMESARTAN], the AC50 (at Estrogen receptor [6]; on Mu-type opioid receptor [7]; in [8]; on Thromboxane A2 receptor) was more than 30 µM in each case.
Consider `NCC(CC(=O)O)c1ccccc1` (configuration not stated) [PHENIBUT], for which the AC50 (at Estrogen receptor [6]; on Mu-type opioid receptor [7]; in experiment [8]; at Thromboxane A2 receptor) was more than 30 µM in each case.
For the molecule `CCCCC1C(=O)N(c2ccccc2)N(c2ccccc2)C1=O` [PHENYLBUTAZONE], the AC50 (in experiment [1]; at D(1A) dopamine receptor; on Estrogen receptor [2]; in experiment [3]; in experiment [4]; in experiment [5]) was more than 10 µM throughout. The values for the AC50 on Progesterone receptor and on Mu-type opioid receptor [9] were more than 10 µM and more than 30 µM, respectively.
Turning to `Cc1ncc(COP(=O)(O)O)c(C=O)c1O` [PYRIDOXAL PHOSPHATE ANHYDROUS], the AC50 is 10.3 µM on Estrogen receptor [6], more than 30 µM on Mu-type opioid receptor [7], more than 30 µM in [8] and more than 30 µM on Thromboxane A2 receptor.
As for `c1ccc2c(c1)CCc1ccccc1N2C1CN2CCC1CC2` (configuration not stated) [QUINUPRAMINE], the AC50 is more than 30 µM at Estrogen receptor [6], 1.84 µM on Mu-type opioid receptor [7], more than 30 µM in [8] and more than 30 µM on Thromboxane A2 receptor.
On to `C[C@H](Cc1cc2c(c(C(N)=O)c1)N(CCCO)CC2)NCCOc1ccccc1OCC(F)(F)F` [SILODOSIN], for which the AC50 is more than 30 µM on Estrogen receptor [6], 3.34 µM at Mu-type opioid receptor [7], more than 30 µM in experiment [8] and more than 30 µM at Thromboxane A2 receptor.
Take `CC1=CCC(C(C)(C)O)CC1O` (configuration not stated) [SOBREROL]: the AC50 was more than 30 µM at Estrogen receptor [6], more than 30 µM on Mu-type opioid receptor [7], more than 10 µM in [8] and more than 30 µM at Thromboxane A2 receptor.
With `CCOC(=O)N1CSC[C@H]1C(=O)O` [TELMESTEINE], the AC50 (on Estrogen receptor [6]; at Mu-type opioid receptor [7]; in experiment [8]; at Thromboxane A2 receptor) was more than 30 µM each time.
As for `Clc1ccc(C(Cn2ccnc2)OCc2ccsc2Cl)c(Cl)c1` (configuration not stated) [TIOCONAZOLE], the AC50 was 13.5 µM in experiment [1]; more than 30 µM at D(1A) dopamine receptor; more than 10 µM at Estrogen receptor [2]; more than 30 µM in [3]; more than 30 µM at Histamine H1 receptor; more than 30 µM in [4]. Moreover, the AC50 is 1.8 µM in [5] and more than 30 µM on Progesterone receptor.
Turning to `CC(C)[C@H](N)C(=O)OCC(CO)OCn1cnc2c(=O)nc(N)[nH]c21` (some centres not stated) [VALGANCICLOVIR], the AC50 (in experiment [1]; at D(1A) dopamine receptor; on Estrogen receptor [2]; in [3]; at Histamine H1 receptor; in [4]) was more than 30 µM in each case. The AC50 (in experiment [5]; on Progesterone receptor) was more than 30 µM throughout.

Source of the values: ChEMBL document CHEMBL5291721, “A preclinical secondary pharmacology resource illuminates target-adverse drug reaction associations of marketed drugs” (Nat Commun, 2023).
